Assay: hygroscopicity of the solid salt
Assay type: physicochemical
Details: both crystalline and amorphous forms

With `COc1ccc2[nH]c([S@@+]([O-])Cc3ncc(C)c(OC)c3C)nc2c1` [(S)-omeprazole barium, (S)-5-methoxy-2-[[(4-methoxy-3,5-dimethyl-2-pyridinyl)-methyl]sulfinyl]-1H-benzimidazole] the hygroscopicity was “non-hygroscopic”.

Reference: patent publication US20110086884A1, “BARIUM SALT OF BENZIMIDAZOLE DERIVATIVE” (priority 2003, published 2011)
